According to ChEMBL document CHEMBL4130371, “Norepinephrine alkaloids as antiplasmodial agents: Synthesis of syncarpamide and insight into the structure-activity relationships of its analogues as antiplasmodial agents” (Eur J Med Chem, 2017):
pIC50: −log10 of the molar value.

Key:
[1] = Cytotoxicity against African green monkey Vero cells assessed as reduction in cell viability after 72 hrs by MTT assay; type: cell-based; conditions: chlorocebus sabaeus
Plasmodium falciparum [2] = experiment: Antiplasmodial activity against chloroquine-resistant Plasmodium falciparum K1 measured after 72 hrs by SYBR green 1 dye based fluorescence assay; type: functional, organism-based; conditions: K1, 72 h
[3] = Selectivity index, ratio of CC50 for African green monkey Vero cells to IC50 for chloroquine-sensitive Plasmodium falciparum 3D7; type: toxicity; conditions: read-out: Ratio CC50/IC50
Plasmodium falciparum [4] = experiment: Antiplasmodial activity against chloroquine-sensitive Plasmodium falciparum 3D7 measured after 72 hrs by SYBR green 1 dye based fluorescence assay; type: functional, organism-based; conditions: 3D7, 72 h

SMILES | CC50 at 72 h [1] | pIC50 (Plasmodium falciparum [2]) | selectivity ratio [3] | pIC50 (Plasmodium falciparum [4])
CCCC(=O)O[C@H](CNC(=O)/C=C/c1ccccc1)c1ccc(OC)c(OC)c1 | 29.9 µM | < 5.00 | < 2.98 | < 5.00
COc1ccc([C@@H](CNC(=O)/C=C/c2ccccc2)OC(=O)CCc2ccccc2)cc1OC | 36.9 µM | < 5.00 | < 3.69 | < 5.00
CCCC(=O)NC[C@@H](OC(=O)/C=C/c1ccccc1)c1ccc(OC)c(OC)c1 | 42.4 µM | < 5.00 | < 4.24 | < 5.00
O=C(/C=C/c1ccccc1)OC[C@@H](OC(=O)/C=C/c1ccccc1)c1ccc2ccccc2c1 | > 200 µM | < 5.00 | 20 | < 5.00
O=C(/C=C/c1ccccc1)OC[C@H](OC(=O)/C=C/c1ccccc1)c1ccc2ccccc2c1 | 181 µM | 5.67 | < 18.1 | < 5.00
COc1ccc([C@@H](CNC(=O)CCc2ccccc2)OC(=O)/C=C/c2ccccc2)cc1OC | 44.3 µM | < 5.00 | < 4.43 | < 5.00
COc1ccc([C@H](O)CNC(=O)/C=C/c2ccccc2)cc1 |  | 5.14 |  | 5.17
COc1ccc([C@@H](O)CNC(=O)/C=C/c2ccccc2)cc1 [AEGELINE] |  | < 5.00 |  | < 5.00
COc1cc([C@@H]2c3cc4c(cc3[C@H](O)[C@H]3COC(=O)[C@H]23)OCO4)cc(OC)c1OC [PODOFILOX] | 5.74 µM |  |  | 
